Each compound was assayed against CDK2/Cyclin E1 (Homo sapiens (Human), UniProt P24941) (assay: CDK2/Cyclin E1 HTRF enzyme activity assay (Example A)). Details: 1 mM ATP.
Assay type: biochemical
Procedure: Assays were conducted in white 384-well polystyrene plates in a final reaction volume of 8 μL. […] HTRF signals were read after 1 hour at room temperature on a PHERAstar FS plate reader (BMG Labtech). Data was analyzed with IDBS XLFit and GraphPad Prism 5.0 software using a three or four parameter dose response curve to determine IC50 for each compound.

IC50 [nM] | Compound
≤ 50 | Cc1nc(-c2nc(NC3CCN(S(C)(=O)=O)CC3)ncc2C(F)(F)F)cn1-c1ccc(N2CCC(N3CCN(C)CC3)CC2)cc1F [Example 415, 4-(1-(2-Fluoro-4-(4-(4-methylpiperazin-1-yl)piperidin-1-yl)phenyl)-2-methyl-1H-imidazol-4-yl)-N-(1-(methylsulfonyl)piperidin-4-yl)-5-(trifluoromethyl)pyrimidin-2-amine]
≤ 50 | Cc1c(-n2cnc(-c3nc(N[C@H]4CCN(S(C)(=O)=O)C[C@H]4F)ncc3C(F)(F)F)c2)ccnc1C#N [Example 302, 4-(4-(2-(((3R,4S)-3-Fluoro-1-(methylsulfonyl)piperidin-4-yl)amino)-5-(trifluoromethyl)pyrimidin-4-yl)-1H-imidazol-1-yl)-3-methylpicolinonitrile]
≤ 50 | CS(=O)(=O)N1CCC(Nc2ncc(C(F)(F)F)c(-c3cn(C4CCOCC4)cn3)n2)CC1 [Example 24, N-(1-(Methylsulfonyl)piperidin-4-yl)-4-(1-(tetrahydro-2H-pyran-4-yl)-1H-imidazol-4-yl)-5-(trifluoromethyl)pyrimidin-2-amine]
≤ 50 | CCNC(=O)c1ccc(-n2cnc(-c3nc(NC4CCN(S(C)(=O)=O)CC4)ncc3C(F)(F)F)c2)c(C)n1 [Example 134, N-Ethyl-6-methyl-5-(4-(2-((1-(methyl-sulfonyl)piperidin-4-yl)amino)-5-(trifluoromethyl)-pyrimidin-4-yl)-1H-imidazol-1-yl)picolinamide]
≤ 50 | CN(C)CCOc1ccc(-n2cnc(-c3nc(NC4CCN(S(C)(=O)=O)CC4)ncc3C(F)(F)F)c2)c(C#N)c1 [Example 435, 5-(2-(Dimethylamino)ethoxy)-2-(4-(2-((1-(methylsulfonyl)piperidin-4-yl)amino)-5-(trifluoromethyl)pyrimidin-4-yl)-1H-imidazol-1-yl)benzonitrile]
≤ 50 | CS(=O)(=O)N1CCC(Nc2ncc(C(F)(F)F)c(-c3cn(-c4ccc(CN5CC(O)C5)cc4C(F)(F)F)cn3)n2)CC1 [Example 259, 1-(4-(4-(2-((1-(Methylsulfonyl)piperidin-4-yl)amino)-5-(trifluoromethyl)pyrimidin-4-yl)-1H-imidazol-1-yl)-3-(trifluoromethyl)benzyl) azetidin-3-ol]
≤ 50 | CC1(O)CN(Cc2ccc(-n3cnc(-c4nc(NC5CCN(S(C)(=O)=O)CC5)ncc4C(F)(F)F)c3)c(C(F)(F)F)c2)C1 [Example 449, 3-Methyl-1-(4-(4-(2-((1-(methylsulfonyl)piperidin-4-yl)amino)-5-(trifluoromethyl)pyrimidin-4-yl)-1H-imidazol-1-yl)-3-(trifluoromethyl)benzyl)azetidin-3-ol]
≤ 50 | CS(=O)(=O)N1CCC(Nc2ncc(C(F)(F)F)c(-c3cn(CC(F)F)cn3)n2)CC1 [Example 21, 4-(1-(2,2-Difluoroethyl)-1H-imidazol-4-yl)-N-(1-(methylsulfonyl)piperidin-4-yl)-5-(trifluoromethyl)pyrimidin-2-amine]
≤ 50 | Cc1ccc(-n2cnc(-c3nc(N[C@H]4CCN(S(=O)(=O)c5cn(C)cn5)C[C@H]4C)ncc3C(F)(F)F)c2)c(C#N)n1 [Example 152, 6-Methyl-3-(4-(2-(((3R,4S)-3-methyl-1-((1-methyl-1H-imidazol-4-yl)sulfonyl)piperidin-4-yl)amino)-5-(trifluoromethyl)pyrimidin-4-yl)-1H-imidazol-1-yl)picolinonitrile]
≤ 50 | CS(=O)(=O)N1CCC(Nc2ncc(C(F)(F)F)c(-c3cn(-c4ccc(N5CC[C@H](O)C5)cc4Cl)cn3)n2)CC1 [Example 139, (S)-1-(3-Chloro-4-(4-(2-((1-(methyl-sulfonyl)piperidin-4-yl)amino)-5-(trifluoromethyl)-pyrimidin-4-yl)-1H-imidazol-1-yl)-phenyl)pyrrolidin-3-ol]
≤ 50 | CNCc1ccc(-n2cc(-c3nc(NC4CCN(S(C)(=O)=O)CC4)ncc3C#N)nc2C)c(Cl)c1 [Example 289, 4-(1-(2-Chloro-4-((methylamino)methyl)phenyl)-2-methyl-1H-imidazol-4-yl)-2-((1-(methylsulfonyl)piperidin-4-yl)amino)pyrimidine-5-carbonitrile]
≤ 50 | [2H]C([2H])([2H])N(Cc1ccc(-n2cc(-c3nc(NC4CCN(S(C)(=O)=O)CC4)ncc3C(F)(F)F)nc2C)c(F)c1)C([2H])([2H])[2H] [Example 280, 4-(1-(4-((Bis(methyl-d)amino)methyl)-2-fluorophenyl)-2-methyl-1H-imidazol-4-yl)-N-(1-(methylsulfonyl)piperidin-4-yl)-5-(trifluoromethyl)pyrimidin-2-amine]
≤ 50 | CS(=O)(=O)N1CCC(Nc2ncc(C(F)(F)F)c(-c3cn(-c4cccnc4C(F)(F)F)cn3)n2)CC1 [Example 32, N-(1-(Methylsulfonyl)piperidin-4-yl)-5-(trifluoromethyl)-4-(1-(2-(trifluoromethyl)pyridin-3-yl)-1H-imidazol-4-yl)pyrimidin-2-amine]
≤ 50 | CC(C)(O)Cn1cnc(-c2nc(N[C@@H]3CCN(S(=O)(=O)C4CC4)C[C@H]3F)ncc2C(F)(F)F)c1 [Example 333, 1-(4-(2-(((3R,4R)-1-(Cyclopropylsulfonyl)-3-fluoropiperidin-4-yl)amino)-5-4-yl)-1H-imidazol-1-yl)-2-methylpropan-2-ol]
≤ 50 | Cn1cc(-c2nc(NC3CCN(S(C)(=O)=O)CC3)ncc2C(F)(F)F)nc1CC(C)(C)O [Example 18, 2-Methyl-1-(1-methyl-4-(2-((1-(methylsulfonyl)piperidin-4-yl)amino)-5-(trifluoromethyl)pyrimidin-4-yl)-1H-imidazol-2-yl)propan-2-ol]
≤ 50 | CS(=O)(=O)N1CCC(Nc2ncc(C(F)(F)F)c(-c3cn(-c4ccc(N5CC[C@@H](O)C5)cc4Cl)cn3)n2)CC1 [Example 138, (R)-1-(3-Chloro-4-(4-(2-((1-(methylsulfonyl)piperidin-4-yl)amino)-5-(trifluoromethyl)pyrimidin-4-yl)-1H-imidazol-1-yl)phenyl)pyrrolidin-3-ol]
≤ 50 | CNCc1cccc(-n2cnc(-c3nc(NC4CCN(S(C)(=O)=O)CC4)ncc3C(F)(F)F)c2)c1Cl [Example 80, 4-(1-(2-Chloro-3-((methylamino)methyl)phenyl)-1H-imidazol-4-yl)-N-(1-(methylsulfonyl)piperidin-4-yl)-5-(trifluoromethyl)pyrimidin-2-amine]
≤ 50 | CS(=O)(=O)N1CC[C@@H](Nc2ncc(C(F)(F)F)c(-c3cn(-c4ccc(C#N)cc4Cl)cn3)n2)[C@H](F)C1 [Example 173, 3-Chloro-4-(4-(2-(((3R,4R)-3-fluoro-1-(methylsulfonyl)-piperidin-4-yl)-amino)-5-(trifluoro-methyl)pyrimidin-4-yl)-1H-imidazol-1-yl)benzonitrile]
≤ 50 | CC(O)c1cccc(-n2cnc(-c3nc(NC4CCN(S(C)(=O)=O)CC4)ncc3C(F)(F)F)c2)c1Cl (centres unmarked) [Example 83, 1-(2-Chloro-3-(4-(2-((1-(methylsulfonyl)piperidin-4-yl)amino)-5-(trifluoromethyl)pyrimidin-4-yl)-1H-imidazol-1-yl)phenyl)ethan-1-ol]
≤ 50 | COc1nccc(-n2cc(-c3nc(N[C@H]4CCN(S(C)(=O)=O)C[C@H]4F)ncc3C(F)(F)F)nc2C)c1F [Example 311, N-((3R,4S)-3-Fluoro-1-(methylsulfonyl)piperidin-4-yl)-4-(1-(3-fluoro-2-methoxypyridin-4-yl)-2-methyl-1H-imidazol-4-yl)-5-(trifluoromethyl)pyrimidin-2-amine]

Source: patent publication US11427567B2, “Imidazolyl pyrimidinylamine compounds as CDK2 inhibitors” (Incyte Corporation, priority 2019, dated 2022)
